Assay results: patent US11884675B2, “Heterocyclic compounds as triggering receptor expressed on myeloid cells 2 agonists and methods of use” (AMGEN INC., priority 2020, dated 2024)
pEC50: −log10 of the molar value.

Experiments:
hTREM2 [1] = target: T1, hTREM2 (Homo sapiens, UniProt Q9NZC2); assay: TREM2 agonist potency by Syk phosphorylation (AlphaLisa) in HEK293T-hTREM2 cells, used for Examples 306-429; format: cell-based; parameters: expressed in transfected cells; host or cells: HEK293T (HEK293T-hTREM2 cells); details: HEK293 Cells
T1 sequence (Q9NZC2 19-230): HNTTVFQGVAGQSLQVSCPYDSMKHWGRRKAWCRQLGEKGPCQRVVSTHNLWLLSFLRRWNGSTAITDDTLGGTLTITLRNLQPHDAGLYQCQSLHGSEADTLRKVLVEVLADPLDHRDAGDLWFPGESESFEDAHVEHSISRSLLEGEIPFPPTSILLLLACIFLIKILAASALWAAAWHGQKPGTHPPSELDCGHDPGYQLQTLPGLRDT
T1 sequence (O43914 22-113 partner): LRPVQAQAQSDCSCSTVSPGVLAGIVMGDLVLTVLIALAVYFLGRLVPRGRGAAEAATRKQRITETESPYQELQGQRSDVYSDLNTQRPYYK
Experimental: In vitro Measurement of Triggering Receptor Expressed on Myeloid Cells 2 activity using cellular phosphorylation of Spleen Tyrosine Kinase (“Syk”) Assays used for Examples 306-429
Measurement of TREM2 agonist potency was done using a HEK cell line expressing human TREM2 and DAP12 (HEK293T-hTREM2 cells). Binding of small molecules to, and activation of, TREM2 increases the phosphorylation of Syk. The resultant levels of Syk phosphorylation were measured using a commercial AlphaLisa reagent kit. To perform the assay, HEK-hTREM2 cells were plated at 14,000 cells per well in a 384 well plate, in 25 μL, of complete growth media and incubated at 37° C., 5% CO2 for 20-24 hours. Prior to the assay, test compounds were diluted in the 384 well plates in assay buffer and allowed to equilibrate for 30 minutes. Growth media was removed from cell plates by inversion on blotting paper, and 25 μL of test compounds in assay buffer was added to cells. Cells were incubated for 45 minutes at room temperature. After 45 minutes, assay buffer was removed and 10 μL of lysis buffer was added. Plates were shaken for 20 minutes at 350 RPM at room temperature. After complete lysis, AlphaLisa reagents were added to the lysate, and fluourescence intensity was measured using a Perkin Elmer Envision plate reader. Intensities were used to generate a standard curve, and % activation was calculated. Curve fitting was performed using Prism v9 software, log(agonist) vs response-variable slope (four parameters), and EC50s were calculated from the curve fit.
The results presented in Table 20 have been generated with the in vitro assay described above for Examples 306-429. This assay may be used to test any of the compounds described herein to assess and characterize a compound's ability to act as an agonist of TREM2.

hTREM2 [2] = target: T1, hTREM2; assay: TREM2 activity by cellular Syk phosphorylation (AlphaScreen/AlphaLISA) in TREM2/DAP12-HEK cells, used for Examples 1-305; format: cell-based; parameters: expressed in transfected cells; details: HEK293 Cells
Method in brief: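 Single-cell-cloned HEK293 cells overexpressing TREM2 and DAP12, seeded 20 h, exposed to test articles (1% final DMSO) for 45 min at room temperature. Lysates read for phospho-Syk (Tyr525/526) vs total Syk by AlphaScreen. Signal normalised as percent of control between isotype IgG and 100 nM anti-TREM2 antibody; 4-parameter logistic fit.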

SMILES | pEC50 (hTREM2 [1]) | pEC50 (hTREM2 [2]) | hTREM2 Emax (hTREM2 [2])
Cc1nc2cc(N3C[C@H](C)O[C@@H](c4cnn(C5CC5)c4)C3)nc(C34CC(C(F)(F)F)(C3)C4)c2nc1C (racemic) [Example 378, 2-(1-cyclopropylpyrazol-4-yl)-4-[2,3-dimethyl-5-[3-(trifluoromethyl)-1-bicyclo[1.1.1]pentanyl]pyrido[3,4-b]pyrazin-7-yl]-6-methyl-morpholine] | 6.30 to 7.30 |  | 
Cc1nc2cc([C@H]3CCO[C@@H](c4cnn(C5CC5)c4)C3)nc(-c3ccc(F)cc3F)c2nc1C (racemic) [Example 393, 7-[2-(1-cyclopropylpyrazol-4-yl)tetrahydropyran-4-yl]-5-(2,4-difluorophenyl)-2,3-dimethyl-pyrido[3,4-b]pyrazine] | 6.30 to 7.30 |  | 
Cc1cnc2c(C34CC(C(F)(F)F)(C3)C4)nc(N3C[C@H](C)O[C@@H](c4cnn(C5CC5)c4)C3)nc2n1 (racemic) [Example 355, 2-(1-cyclopropyl-1H-pyrazol-4-yl)-6-methyl-4-(7-methyl-4-(3-(trifluoromethyl)bicyclo[1.1.1]pentan-1-yl)pteridin-2-yl)morpholine] | 6.30 to 7.30 |  | 
Cc1nc2nc(N3C[C@@H](c4cnn(C5CC5)c4)O[C@@H](C)C3)nc(C34CC(C(F)(F)F)(C3)C4)c2nc1C [Example 410, (2R,6S)-2-(1-cyclopropyl-1H-pyrazol-4-yl)-4-(6,7-dimethyl-4-(3-(trifluoromethyl)bicyclo[1.1.1]pentan-1-yl)pteridin-2-yl)-6-methylmorpholine] | ≥ 7.30 |  | 
Cc1nc2nc(N3C[C@@H](c4cnn(C5CC5)c4)O[C@@H](C)C3)nc(-c3ccc(Cl)cc3F)c2nc1C [Example 424, (2R,6S)-4-(4-(4-chloro-2-fluorophenyl)-6,7-dimethylpteridin-2-yl)-2-(1-cyclopropyl-1H-pyrazol-4-yl)-6-methylmorpholine] | ≥ 7.30 |  | 
Cc1cnc2c(C34CC(C)(C3)C4)nc([C@H]3C[C@@H](C)O[C@@H](c4cnn(C5CC5)c4)C3)cc2n1 [Example 421, 7-((2R,4S,6R)-2-(1-cyclopropyl-1H-pyrazol-4-yl)-6-methyltetrahydro-2H-pyran-4-yl)-2-methyl-5-(3-methylbicyclo[1.1.1]pentan-1-yl)pyrido[3,4-b]pyrazine] | 5.52 to 6.30 |  | 
Cc1cc([C@H]2CN(c3nc(-c4ccc(C(F)(F)F)nc4)c4nc(C)c(C)nc4n3)CCO2)cnn1 [Example 299, (S)-4-(6,7-dimethyl-4-(6-(trifluoromethyl)pyridin-3-yl)pteridin-2-yl)-2-(6-methylpyridazin-4-yl)morpholine] |  | ≥ 7.30 | +++ (Emax>150 and ≤250)
Cc1nc2nc(N3CCC(F)(F)[C@H](c4cnn(C)c4)C3)nc(-c3ccc(Cl)cc3F)c2nc1C (single isomer, unassigned) [Example 124] |  | ≥ 7.30 | ++++ (Emax>250)
Cc1nc2cc(N3CCO[C@@H](c4cnn(C5CC5)c4)C3)nc([C@H]3C[C@H](C(F)(F)F)C3)c2nc1C [Example 81, 7-((2S)-2-(1-cyclopropyl-1H-pyrazol-4-yl)-4-morpholinyl)-2,3-dimethyl-5-(trans-3-(trifluoromethyl)cyclobutyl)pyrido[3,4-b]pyrazine] |  | 6.30 to 7.30 | ++ (Emax>100 and ≤150)
Cc1nc2nc(N3CCO[C@@H](c4cnn(C5CC5)c4)C3)nc(-c3ccc(F)cc3F)c2nc1C [Example 32, 2-((2S)-2-(1-cyclopropyl-1H-pyrazol-4-yl)-4-morpholinyl)-4-(2,4-difluorophenyl)-6,7-dimethylpteridine] |  | ≥ 7.30 | +++ (Emax>150 and ≤250)
Cc1ncc2c(-c3ccc(Cl)cc3F)cc(N3CCO[C@@H](c4cnn(C)c4)C3)cc2n1 [Example 153, 5-(4-chloro-2-fluorophenyl)-2-methyl-7-((2S)-2-(1-methyl-1H-pyrazol-4-yl)-4-morpholinyl) quinazoline] |  | 6.30 to 7.30 | +++ (Emax>150 and ≤250)
Cc1nc2nc(N3CCO[C@@H](c4cnn(C)c4)C3)nc([C@H]3C[C@H](C(F)(F)F)C3)c2nc1C [Example 42, 6,7-dimethyl-2-((2S)-2-(1-methyl-1H-pyrazol-4-yl)-4-morpholinyl)-4-(trans-3-(trifluoromethyl)cyclobutyl)pteridine] |  | ≥ 7.30 | ++ (Emax>100 and ≤150)
Cc1nc2nc(N3CCO[C@@H](c4cnn(C)c4)C3)nc(-c3cc(F)c(F)c(F)c3)c2nc1C [Example 18, 6,7-dimethyl-2-((2S)-2-(1-methyl-1H-pyrazol-4-yl)-4-morpholinyl)-4-(3,4,5-trifluorophenyl)pteridine] |  | ≥ 7.30 | +++ (Emax>150 and ≤250)
Cc1cc2c(-c3ccc(Cl)cc3F)nc([C@@H]3CCO[C@@H](c4cnn(C)c4)C3)nc2nc1C (single isomer, unassigned) [Example 225] |  | 6.30 to 7.30 | +++ (Emax>150 and ≤250)
Cc1nc2nc([C@H]3CCO[C@@H](c4cnn(C)c4)C3)nc(-c3ccc(Cl)cc3F)c2nc1C (single isomer, unassigned) [Example 178] |  | ≥ 7.30 | ++++ (Emax>250)
Cc1ccc(-c2nc([C@@H]3CCO[C@H](c4cnn(C)c4)C3)nc3nc(C)c(C)nc23)c(F)c1 (single isomer, unassigned) [Example 184] |  | 5.52 to 6.30 | +++ (Emax>150 and ≤250)

Second part, the compound after the results:

pEC50 (hTREM2 [1]) | pEC50 (hTREM2 [2]) | hTREM2 Emax (hTREM2 [2]) | SMILES
6.30 to 7.30 |  |  | Cc1cnc2c(C34CC(C(F)(F)F)(C3)C4)nc(N3C[C@@H](C)O[C@@H](c4cnn(C5CC5)c4)C3)cc2n1 (racemic) [Example 377, 2-(1-cyclopropylpyrazol-4-yl)-6-methyl-4-[2-methyl-5-[3-(trifluoromethyl)-1-bicyclo[1.1.1]pentanyl]pyrido[3,4-b]pyrazin-7-yl]morpholine]
≥ 7.30 |  |  | Cc1cnc2c(-c3ccc(F)cc3F)nc(N3C[C@@H](C)O[C@@H](c4cnn(C5CC5)c4)C3)nc2n1 (racemic) [Example 371, 2-(1-cyclopropyl-1H-pyrazol-4-yl)-4-(4-(2,4-difluorophenyl)-7-methylpteridin-2-yl)-6-methylmorpholine]
5.52 to 6.30 |  |  | Cc1cc([C@H]2C[C@H](c3cc4nc(C)c(C)nc4c(-c4ccc(F)cc4F)n3)CCO2)ccn1 [Example 331, 5-(2,4-difluorophenyl)-2,3-dimethyl-7-((2R,4R)-2-(2-methylpyridin-4-yl)tetrahydro-2H-pyran-4-yl)pyrido[3,4-b]pyrazine]
≥ 7.30 |  |  | Cc1cnc2c(-c3ccc(F)cc3F)nc([C@H]3CCO[C@@H](c4cnn(C5CC5)c4)C3)nc2n1 [Example 330, 2-[(2R,4S)-2-(1-cyclopropylpyrazol-4-yl)tetrahydropyran-4-yl]-4-(2,4-difluorophenyl)-7-methyl-pteridine]
≥ 7.30 |  |  | Cc1nc2cc(N3CCOC(c4cnn(C5CC5)c4)C3)nc(-c3ccc(Cl)cc3F)c2nc1C (stereo not shown) [Example 348, 4-(5-(4-chloro-2-fluorophenyl)-2,3-dimethylpyrido[3,4-b]pyrazin-7-yl)-2-(1-cyclopropyl-1H-pyrazol-4-yl)morpholine]
6.30 to 7.30 |  |  | Cc1nc2cc(N3CC(C)OC(c4cnn(C5CC5)c4)C3)nc(-c3ccc(Cl)cc3F)c2nc1C (stereo not shown) [Example 367, 4-(5-(4-chloro-2-fluorophenyl)-2,3-dimethylpyrido[3,4-b]pyrazin-7-yl)-2-(1-cyclopropyl-1H-pyrazol-4-yl)-6-methylmorpholine]
 | 6.30 to 7.30 | +++ (Emax>150 and ≤250) | Cc1nc2nc(N3CCO[C@@H](c4cnn(C)c4)C3)nc(C3=CCC(F)(F)CC3)c2nc1C [Example 125, 4-(4,4-difluoro-1-cyclohexen-1-yl)-6,7-dimethyl-2-((2S)-2-(1-methyl-1H-pyrazol-4-yl)-4-morpholinyl)pteridine]
 | 6.30 to 7.30 | ++ (Emax>100 and ≤150) | Cc1cc([C@H]2CN(c3nc4nc(C)cnc4c([C@H]4C[C@@H](C(F)(F)F)C4)n3)CCO2)ccn1 [Example 15, 7-methyl-2-((2S)-2-(2-methyl-4-pyridinyl)-4-morpholinyl)-4-(cis-3-(trifluoromethyl)cyclobutyl)pteridine]
 | ≥ 7.30 | +++ (Emax>150 and ≤250) | Cc1ccc2c(-c3ccc(Cl)cc3F)nc(N3CCO[C@@H](c4cnn(C)c4)C3)nc2n1 [Example 84, 4-(4-chloro-2-fluorophenyl)-7-methyl-2-((2S)-2-(1-methyl-1H-pyrazol-4-yl)-4-morpholinyl)pyrido[2,3-d]pyrimidine]
 | 6.30 to 7.30 | ++ (Emax>100 and ≤150) | Cc1ccc2c(n1)nc(N1CCO[C@@H](c3cnn(C4CC4)c3)C1)nc2[C@H]1C[C@H](C(F)(F)F)C1 [Example 98, 2-((2S)-2-(1-cyclopropyl-1H-pyrazol-4-yl)-4-morpholinyl)-7-methyl-4-(trans-3-(trifluoromethyl)cyclobutyl)pyrido[2,3-d]pyrimidine]
